Test results as given in ChEMBL document CHEMBL3045945, “INHIBITORS OF FILARIAL GAMMA-GLUTAMYL CYCLE ENZYMES AS POSSIBLE MACROFILARICIDAL AGENTS” (Med Chem Res, 2004).
Where a name gives a salt, the structure may show the parent alone. Active and inactive are the calls of the source. The calls are words filed in the database; no cut-off is given here.

Experiments:
Setaria cervi = test: Antifilarial activity against Setaria cervi assessed as change in GSH level at 250 uM after 6 hr by RP-HPLC analysis; assay type: functional
[1] = target: Glutathione hydrolase 1 proenzyme (Rattus norvegicus, UniProt P07314); test: Inhibition of Rattus norvegicus Wistar (rat) rat Gamma-glutamyltranspeptidase using L-gamma-glutamyl-p-nitroanilide as substrate incubated for 15 min prior to substrate addition by spectrophotometric analysis
Sequence of Glutathione hydrolase 1 proenzyme (P07314 1-379 limits assumed): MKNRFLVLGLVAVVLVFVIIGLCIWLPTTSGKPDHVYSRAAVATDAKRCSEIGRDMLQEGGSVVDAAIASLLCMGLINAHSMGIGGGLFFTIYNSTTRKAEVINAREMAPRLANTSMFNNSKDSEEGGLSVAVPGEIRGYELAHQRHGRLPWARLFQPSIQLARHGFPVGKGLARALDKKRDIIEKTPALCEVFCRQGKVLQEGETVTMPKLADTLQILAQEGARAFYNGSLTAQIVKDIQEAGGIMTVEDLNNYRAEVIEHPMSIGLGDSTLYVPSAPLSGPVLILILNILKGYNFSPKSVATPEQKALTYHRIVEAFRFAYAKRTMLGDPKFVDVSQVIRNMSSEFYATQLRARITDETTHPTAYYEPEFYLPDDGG
Sequence of Glutathione hydrolase 1 proenzyme (P07314 380-568 limits assumed): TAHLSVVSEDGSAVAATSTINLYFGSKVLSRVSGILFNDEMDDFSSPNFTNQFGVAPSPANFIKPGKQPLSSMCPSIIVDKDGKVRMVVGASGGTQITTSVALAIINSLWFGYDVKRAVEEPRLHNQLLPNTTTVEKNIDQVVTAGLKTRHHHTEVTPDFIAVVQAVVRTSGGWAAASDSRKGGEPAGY

Molecule `COC(=O)/C=C\C(=O)OC` [DIMETHYL MALEATE] has an Activity (Setaria cervi) of 95.82%.
With `N[C@@H](CO)C(=O)O` [SERINE] the Ki [1] was 50 µM.
In the case of `CCOC(=O)CC(NCCCCCCCCCCNC(CC(=O)OCC)[C@@H]1O[C@H]2OC(C)(C)O[C@H]2[C@@H]1OC)[C@H]1O[C@@H]2OC(C)(C)O[C@@H]2[C@H]1OC` (some centres not stated), the Activity (Setaria cervi) is reported as 48%.
With `CCOC(=O)CC(NCCCCCCCCCCNC(CC(=O)OCC)[C@@H]1O[C@H]2OC(C)(C)O[C@H]2[C@@H]1OCc1ccccc1)[C@H]1O[C@@H]2OC(C)(C)O[C@@H]2[C@H]1OCc1ccccc1` (some centres not stated) the Activity (Setaria cervi) was 58.17%.
With `CC1=CC(=O)c2ccccc2C1=O` [MENADIONE] the Activity (Setaria cervi) was 96.04%.
For `CO[C@@H]1[C@H]2OC(C)(C)O[C@H]2O[C@@H]1CNCCCCCCCCCCCCNC[C@@H]1O[C@H]2OC(C)(C)O[C@H]2[C@@H]1OC` (stereo in doubt), the Activity (Setaria cervi) was 39%.
In the case of `CCOC(=O)CC(NCCCNC(CC(=O)OCC)[C@@H]1O[C@H]2OC(C)(C)O[C@H]2[C@@H]1OCc1ccccc1)C1O[C@@H]2OC(C)(C)OC2[C@H]1OCc1ccccc1` (single isomer, unassigned), the Activity (Setaria cervi) is reported as 59.12%.
With `CCCCCCCCCCCCCC(=O)Oc1ccc2c(C)cc(=O)oc2c1` the Activity (Setaria cervi) was “inactive”.
`Cc1cc(=O)oc2cc(OCC(=O)NCCCCCCCCCCCCN)ccc12` was tested, and the Activity (Setaria cervi) was 3.22%.
Work on `CCOC(=O)CC(NCCCCCCCNC(CC(=O)OCC)[C@H]1O[C@@H]2OC(C)(C)OC2[C@H]1OCc1ccccc1)C1OC2OC(C)(C)O[C@H]2[C@@H]1OCc1ccccc1` (single isomer, unassigned) yielded an Activity (Setaria cervi) of 15.9%.
Work on `CO[C@@H]1[C@H]2OC(C)(C)O[C@H]2O[C@@H]1CNCCCCCCCCCCNC[C@@H]1O[C@H]2OC(C)(C)O[C@H]2[C@@H]1OC` yielded an Activity (Setaria cervi) of 33.14%.
In the case of `CC1(C)O[C@@H]2O[C@@H](CNCCCCCCCNC[C@H]3O[C@@H]4OC(C)(C)O[C@@H]4[C@H]3OCc3ccccc3)[C@@H](OCc3ccccc3)[C@@H]2O1`, the Activity (Setaria cervi) is reported as 69.29%.
In the case of `CCOC(=O)CC(NCCCCCCCCCCCCNC(CC(=O)OCC)[C@@H]1O[C@H]2OC(C)(C)O[C@H]2[C@@H]1OCc1ccccc1)[C@H]1O[C@@H]2OC(C)(C)O[C@@H]2[C@H]1OCc1ccccc1` (some centres not stated), the Activity (Setaria cervi) is reported as 67%.
`Cc1cc2oc(=O)cc(C)c2cc1C` gave an Activity (Setaria cervi) of 42.07%.
`CC(C)=CC(=O)C=C(C)C` [PHORONE] showed an Activity (Setaria cervi) of 93.7%.
`CCOC(=O)CC(NCCCCCCCNC(CC(=O)OCC)[C@@H]1O[C@H]2OC(C)(C)O[C@H]2[C@@H]1OC)[C@H]1O[C@@H]2OC(C)(C)O[C@@H]2[C@H]1OC` (some centres not stated) showed an Activity (Setaria cervi) of 39.04%.
`Cc1cc(=O)oc2cc(OCC(=O)NC3CCCCC3)ccc12` was tested, and the Activity (Setaria cervi) was 46%.
For `CCCc1cc(=O)oc2cc(OCC(=O)OCC)ccc12`, the Activity (Setaria cervi) was 5.75%.
For `CCOC(=O)CC(NCCCCCCCCCCCCNC(CC(=O)OCC)[C@@H]1O[C@H]2OC(C)(C)O[C@H]2[C@@H]1OC)[C@H]1O[C@@H]2OC(C)(C)O[C@@H]2[C@H]1OC` (stereo in doubt), the Activity (Setaria cervi) was 37.43%.
For `CC1(C)O[C@@H]2O[C@@H](CNCCCCCCCCCCCCNC[C@H]3O[C@@H]4OC(C)(C)O[C@@H]4[C@H]3OCc3ccccc3)[C@@H](OCc3ccccc3)[C@@H]2O1`, the Activity (Setaria cervi) was 60%.
`O=NN(CCCl)C(=O)NCCCl` [CARMUSTINE] showed an Activity (Setaria cervi) of 68.97%.
`CN(C)c1ccc2nc3ccc(N(C)C)cc3[s+]c2c1.[Cl-]` [METHYLENE BLUE ANHYDROUS] was tested, and the Activity (Setaria cervi) was 34.68%.
`CCOC(=O)CC(NCCCNC(CC(=O)OCC)[C@@H]1O[C@H]2OC(C)(C)O[C@H]2[C@@H]1OC)[C@H]1O[C@@H]2OC(C)(C)O[C@@H]2[C@H]1OC` (some centres not stated) showed an Activity (Setaria cervi) of 14.55%.
With `Cc1cc(C)c2c(C)cc(=O)oc2c1` the Activity (Setaria cervi) was 65%.
In the case of `CCCCS(=N)(=O)CC[C@H](N)C(=O)O` (some centres not stated) [BUTHIONINE SULFOXIME], the Activity (Setaria cervi) is reported as 35.78%.
In the case of `CO[C@H]1[C@@H](CNCCCCCCCNC[C@@H]2O[C@H]3OC(C)(C)OC3[C@@H]2OC)OC2OC(C)(C)O[C@@H]21` (single isomer, unassigned), the Activity (Setaria cervi) is reported as 52.54%.
Molecule `CC1(C)O[C@@H]2O[C@@H](CNCCCCCCCCCCNC[C@H]3O[C@@H]4OC(C)(C)O[C@@H]4[C@H]3OCc3ccccc3)[C@@H](OCc3ccccc3)[C@@H]2O1` has an Activity (Setaria cervi) of 52.5%.
